Experimental data: patent US20260125400A1, “TYK2 DEGRADERS AND USES THEREOF” (Kymera Therapeutics, Inc., priority 2023, published 2026)
Like-named read-outs stand apart in the source and are kept apart here.

Biological target: T1, TYK2 (Homo sapiens, UniProt P29597)
T1 construct: Degradation of TYK2 in cells was quantitatively measured using Meso Scale Discovery (MSD) technology; endogenous in cells; host or cells: OCI-LY10
Test: TYK2 MSD degradation in OCI-LY10 cells
Type: cell-based
Conditions: 4 to 24 hours incubation; for DC50: read-out: TYK2 MSD OCI-LY10 Rel-DC50
How it was run: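 OCI-LY10 cells were treated with 9-dose 1:3 series (top 1 to 10 μM final) for 4 to 24 hours at 37° C. Lysate TYK2 quantified by MSD sandwich immunoassay; DC50 and Dmax from four-parameter inhibitor vs. response fit.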

[1] = TYK2 degradation in OCI-LY10 cells

T1 sequence (P29597 whole entry): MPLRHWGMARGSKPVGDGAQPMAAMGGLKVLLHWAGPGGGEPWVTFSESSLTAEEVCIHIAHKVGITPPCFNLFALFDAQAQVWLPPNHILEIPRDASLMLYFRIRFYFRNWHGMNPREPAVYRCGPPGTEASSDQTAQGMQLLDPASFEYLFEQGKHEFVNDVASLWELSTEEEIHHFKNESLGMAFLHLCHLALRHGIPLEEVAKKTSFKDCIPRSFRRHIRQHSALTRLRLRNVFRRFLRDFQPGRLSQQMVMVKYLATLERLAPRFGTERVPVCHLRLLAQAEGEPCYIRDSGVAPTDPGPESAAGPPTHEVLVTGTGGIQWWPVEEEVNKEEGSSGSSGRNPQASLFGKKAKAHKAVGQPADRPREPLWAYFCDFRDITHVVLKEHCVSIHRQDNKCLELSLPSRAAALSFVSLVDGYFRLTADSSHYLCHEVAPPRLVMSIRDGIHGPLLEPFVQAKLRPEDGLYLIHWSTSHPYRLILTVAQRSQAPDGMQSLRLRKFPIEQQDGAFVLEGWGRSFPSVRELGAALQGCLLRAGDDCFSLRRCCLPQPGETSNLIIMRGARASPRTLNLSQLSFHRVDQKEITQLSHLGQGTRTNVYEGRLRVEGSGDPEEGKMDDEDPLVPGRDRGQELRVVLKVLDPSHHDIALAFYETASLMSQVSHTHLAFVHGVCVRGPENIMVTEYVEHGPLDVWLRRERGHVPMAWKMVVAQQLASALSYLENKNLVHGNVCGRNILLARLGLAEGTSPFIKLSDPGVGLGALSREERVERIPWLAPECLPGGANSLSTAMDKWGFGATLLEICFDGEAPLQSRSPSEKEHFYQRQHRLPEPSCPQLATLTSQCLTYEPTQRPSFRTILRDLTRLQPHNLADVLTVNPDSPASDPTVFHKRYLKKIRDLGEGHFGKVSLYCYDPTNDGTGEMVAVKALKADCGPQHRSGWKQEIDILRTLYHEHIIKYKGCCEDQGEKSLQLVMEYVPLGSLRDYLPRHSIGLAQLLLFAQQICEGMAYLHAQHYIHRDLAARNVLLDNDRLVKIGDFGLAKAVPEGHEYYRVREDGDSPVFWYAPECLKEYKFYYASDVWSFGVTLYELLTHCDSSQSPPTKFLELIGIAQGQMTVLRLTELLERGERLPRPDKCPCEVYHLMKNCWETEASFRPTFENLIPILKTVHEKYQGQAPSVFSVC

CNc1cc(N2CCc3c(-c4ccc(CN5CCC(N6CCC(C7CCN(c8ccc9c(c8)n(C)c(=O)n9C8CCC(=O)NC8=O)CC7)CC6)C(F)(F)C5)cn4)cccc32)nn2c(C(=O)N[C@@H]3C[C@@H]3F)cnc12 (stereo partly shown) [I-360]
TYK2 MSD OCI-LY10 Dmax % [1]: B (B (90 to >75%)) | DC50 [1]: < 10 nM

CNc1cc(N2CCc3c(-c4ncc(CN5CCC6(CCN(C(=O)c7cc(C)c(Cl)c(N8CCC(=O)NC8=O)c7)CC6)C(F)(F)C5)cc4C)cccc32)nn2c(C(=O)N[C@@H]3C[C@@H]3F)cnc12 [I-763]
TYK2 MSD OCI-LY10 Dmax % (OCI-LY10 cells): B (B (90 to >75%)) | DC50 (OCI-LY10 cells): < 10 nM

CNc1cc(N2CCc3c(-c4ccc(N5CC6(CCN(Cc7ccc(C8CCC(=O)NC8=O)c(Cl)c7)CC6)C5)cn4)cccc32)nn2c(C(=O)NC3CC3F)cnc12 (mixture of isomers) [I-445]
TYK2 MSD OCI-LY10 Dmax % (OCI-LY10 cells): B (B (90 to >75%)) | DC50 (OCI-LY10 cells): < 10 nM

CNc1cc(N2CCc3c(-c4ccc(CN5CCC6(CC5)CCN(C(=O)c5ccc(Cl)c(N7CCC(=O)NC7=O)c5)C6)cn4)cccc32)nn2c(C(=O)N[C@H]3C[C@H]3F)cnc12 [I-82]
TYK2 MSD OCI-LY10 Dmax % [1]: B (B (90 to >75%)) | DC50 [1]: < 1 nM

CNc1cc(N2CCc3c(CN4CCC(N5CCC6(CCN(C(=O)c7cc(C)c(Cl)c(N8CCC(=O)NC8=O)c7)CC6)CC5)C(F)(F)C4)cc(Cl)cc32)nn2c(C(=O)N[C@@H]3CC[C@H]3OC)cnc12 (stereo partly shown) [I-1116]
TYK2 MSD OCI-LY10 Dmax % [1]: B (B (90 to >75%)) | DC50 [1]: < 10 nM

CNc1cc(N2CCc3c(CN4CCC(N5CCC6(CCN(C(=O)c7cc(F)c(Cl)c(N8CCC(=O)NC8=O)c7)CC6)CC5)C(F)(F)C4)cccc32)nn2c(C(=O)NC3CCC3OC)cnc12 (stereo not shown) [I-1078]
TYK2 MSD OCI-LY10 Dmax % [1]: A (A (>90%)) | DC50 [1]: < 1 nM

CNc1cc(N2CCc3c(-c4ccc(CN5CCN(Cc6ccc(C7CCC(=O)NC7=O)c(Cl)c6)CC5)cn4)cccc32)nn2c(C(=O)N[C@@H]3C[C@@H]3F)cnc12 (stereo partly shown) [I-374]
TYK2 MSD OCI-LY10 Dmax % [1]: D (D (<50%)) | DC50 [1]: < 10 nM

CNc1cc(N2CCc3c(N4CCN(CCC5CC6(CCN(C(=O)c7ccc(Cl)c(N8CCC(=O)NC8=O)c7)CC6)C5)CC4)cccc32)nn2c(C(=O)N[C@@H]3C[C@@H]3F)cnc12 [I-887]
TYK2 MSD OCI-LY10 Dmax % [1]: B (B (90 to >75%)) | DC50 [1]: < 10 nM

CNc1cc(N2CCc3c(C#CCN4CCN(C5CCN(C(=O)c6ccc(Cl)c(N7CCC(=O)NC7=O)c6)CC5(F)F)CC4)cccc32)nn2c(C(=O)NC3CC3F)cnc12 (stereo not shown) [I-846]
TYK2 MSD OCI-LY10 Dmax % [1]: A (A (>90%)) | DC50 [1]: < 1 nM

CNc1cc(N2CCc3c(N4CC(CN5CCN(C6CCN(C(=O)c7ccc(Cl)c(N8CCC(=O)NC8=O)c7)CC6)CC5)C4)cccc32)nn2c(C(=O)N[C@@H]3C[C@@H]3F)cnc12 [I-787]
TYK2 MSD OCI-LY10 Dmax % (OCI-LY10 cells): D (D (<50%)) | DC50 (OCI-LY10 cells): > 100 nM

CNc1cc(N2CCc3c(-c4ccc(CN5CC6(CCN(Cc7ccc(Cl)c(N8CCC(=O)NC8=O)c7)CC6(F)F)C5)cn4)cccc32)nn2c(C(=O)NC3CCC3OC)cnc12 (stereo not shown) [I-1011]
TYK2 MSD OCI-LY10 Dmax % [1]: B (B (90 to >75%)) | DC50 [1]: < 10 nM

CNc1cc(N2CCc3c(-c4ncc(CN5CC6(CCN(C(=O)c7cc(F)c(C)c(N8CCC(=O)NC8=O)c7)CC6(F)F)C5)cc4F)cccc32)nn2c(C(=O)N[C@@H]3C[C@@H]3F)cnc12 [I-1016]
TYK2 MSD OCI-LY10 Dmax % [1]: A (A (>90%)) | DC50 [1]: < 1 nM

CNc1cc(N2CCc3c(-c4ncc(CN5CCC6(CCN(C(=O)c7cc(C)c(Cl)c(N8CCC(=O)NC8=O)c7)CC6)C(F)(F)C5)cc4F)cccc32)nn2c(C(=O)N[C@@H]3C[C@@H]3F)cnc12 [I-818]
TYK2 MSD OCI-LY10 Dmax % [1]: B (B (90 to >75%)) | DC50 [1]: < 10 nM

CNc1cc(N2CCc3c(C#CCN4CCC(N5CCC6(CCN(c7ccc8c(c7)n(C)c(=O)n8C7CCC(=O)NC7=O)CC6)CC5)C(F)(F)C4)cccc32)nn2c(C(=O)N[C@@H]3C[C@@H]3F)cnc12 (stereo partly drawn) [I-486, 6-(4-(3-(4-(9-(1-(2,6-Dioxopiperidin-3-yl)-3-methyl-2-oxo-2,3-dihydro-LH-benzo[d]imidazol-5-yl)-3,9-diazaspiro[5.5]undecan-3-yl)-3,3-difluoropiperidin-1-yl)prop-1-yn-1-yl)indolin-1-yl)-N-((1R,2S)-2-fluorocyclopropyl)-8-(methylamino)imidazo[1,2-b]pyridazine-3-carboxamide]
Dmax (OCI-LY10 cells): 75 to 90% | DC50 (OCI-LY10 cells): < 10 nM

CNc1cc(N2CCc3c(-c4ccc(OC5CCC6(CC5)CCN(Cc5ccc(Cl)c(N7CCC(=O)NC7=O)c5)CC6)cn4)cccc32)nn2c(C(=O)N[C@@H]3C[C@@H]3F)cnc12 [I-362]
TYK2 MSD OCI-LY10 Dmax % [1]: D (D (<50%)) | DC50 [1]: > 100 nM

CNc1cc(N2CCc3c(-c4ccc(OC5CC6(CCN(C(=O)c7cc(C)c(Cl)c(N8CCC(=O)NC8=O)c7)CC6)C5)cn4)cccc32)nn2c(C(=O)N[C@@H]3CC[C@H]3OC)cnc12 [I-997]
TYK2 MSD OCI-LY10 Dmax % [1]: A (A (>90%)) | DC50 [1]: < 1 nM

CNc1cc(N2CCc3c(-c4ccc(CN5CC6(CCN(C(=O)c7cc(Cl)c(C)c(N8CCC(=O)NC8=O)c7)CC6(F)F)C5)cn4)cccc32)nn2c(C(=O)N[C@@H]3CC[C@H]3OC)cnc12 [I-754]
TYK2 MSD OCI-LY10 Dmax % (OCI-LY10 cells): A (A (>90%)) | DC50 (OCI-LY10 cells): < 1 nM

CNc1cc(N2CCc3c(-c4ccc(CN5CC6(CCN(Cc7ccc(OC)c(C8CCC(=O)NC8=O)c7)CC6(F)F)C5)cn4)cccc32)nn2c(C(=O)N[C@@H]3C[C@@H]3F)cnc12 (stereo partly shown) [I-431]
TYK2 MSD OCI-LY10 Dmax % (OCI-LY10 cells): B (B (90 to >75%)) | DC50 (OCI-LY10 cells): < 10 nM

CNc1cc(N2CCc3c(-c4ccc(CN5CC6(CCN(C(=O)c7ccc(N8CCC(=O)NC8=O)c(Cl)c7)CC6)C5)cn4)cccc32)nn2c(C(=O)N[C@@H]3C[C@@H]3F)cnc12 [I-896]
TYK2 MSD OCI-LY10 Dmax % [1]: D (D (<50%)) | DC50 [1]: > 100 nM

CNc1cc(N2CCc3c(CN4CCC5(CC4)CCN(C(=O)c4ccc(Cl)c(N6CCC(=O)NC6=O)c4)CC5)cccc32)nn2c(C(=O)NC3CC3)cnc12 [I-58]
TYK2 MSD OCI-LY10 Dmax % [1]: D (D (<50%)) | DC50 [1]: > 100 nM

CNc1cc(N2CCc3c(C#CCN4CCC(N5CCN(C(=O)c6ccc(Cl)c(N7CCC(=O)NC7=O)c6)CC5)C(F)(F)C4)cccc32)nn2c(C(=O)NC3CC3F)cnc12 (stereo not shown) [I-854]
TYK2 MSD OCI-LY10 Dmax % [1]: A (A (>90%)) | DC50 [1]: < 1 nM

CNc1cc(N2CCc3c(CN4CCC(N5CCC6(CCN(C(=O)c7cc(N8CCC(=O)NC8=O)c(Cl)cc7F)CC6)CC5)C(F)(F)C4)cccc32)nn2c(C(=O)N[C@@H]3C[C@@H]3F)cnc12 (stereo partly shown) [I-841]
TYK2 MSD OCI-LY10 Dmax % [1]: A (A (>90%)) | DC50 [1]: < 1 nM

CNc1cc(N2CCc3c(-c4ccc(CN5CC6(CCC(COc7ccc(C8CCC(=O)NC8=O)c(Cl)c7)CC6)C5)cn4)cccc32)nn2c(C(=O)N[C@@H]3C[C@@H]3F)cnc12 (stereo partly shown) [I-463]
TYK2 MSD OCI-LY10 Dmax % (OCI-LY10 cells): D (D (<50%)) | DC50 (OCI-LY10 cells): > 100 nM

CNc1cc(N2CCc3c(CN4CCC(N5CCC6(CCN(C(=O)c7cc(N8CCC(=O)NC8=O)c(C)cc7F)CC6)CC5)C(F)(F)C4)cccc32)nn2c(C(=O)N[C@@H]3C[C@@H]3F)cnc12 (stereo partly shown) [I-853]
TYK2 MSD OCI-LY10 Dmax % [1]: A (A (>90%)) | DC50 [1]: < 1 nM

CNc1cc(N2CCc3c(-c4ccc(CN5CCC(N6CCC(Oc7ccc(Cl)c(N8CCC(=O)NC8=O)c7)CC6)C(F)(F)C5)cn4)cccc32)nn2c(C(=O)N[C@@H]3C[C@@H]3F)cnc12 (stereo partly shown) [I-245]
TYK2 MSD OCI-LY10 Dmax % [1]: D (D (<50%)) | DC50 [1]: > 100 nM

CNc1cc(N2CCc3c(-c4cc(CN5CCN(c6ccc7c(c6F)n(C)c(=O)n7C6CCC(=O)NC6=O)CC5)ccn4)cccc32)nn2c(C(=O)NC3CC3)cnc12 (stereo not shown) [I-71]
TYK2 MSD OCI-LY10 Dmax % [1]: B (B (90 to >75%)) | DC50 [1]: < 1 nM
